Values quoted from earlier work, collected in patent publication US11957650B2, “Formulation and method for the prevention and/or treatment of hangover symptoms” (PHOENIX PHARMACEUTICALS AUSTRALIA PTY LTD, priority 2016, dated 2024).

System: acetaldehyde poisoning in rats
Settings: for Effective dose in rats: footnotes * and † not given

SMILES	Effective dose in rats	mortality due to acetaldehyde poisoning (L-cysteine alone [13, 14])	mortality in rats poisoned with acetaldehyde, thiamine added to L-cysteine (addition of thiamine to L-cysteine [13, 14])
O=C1O[C@H]([C@@H](O)CO)C(O)=C1O [Ascorbic acid]	50 mg		
N[C@@H](CS)C(=O)O [L-cysteine]	34 mg	markedly reduce the mortality	
Cc1ncc(C[n+]2csc(CCO)c2C)c(N)n1.Cl.[Cl-] [Thiamine•HCl]	42 mg		
Cc1ncc(C[n+]2csc(CCO)c2C)c(N)n1 [thiamine, Thiamine]			enhanced the ability of L-cysteine to reduce mortality
